Results from patent US11180452B2, “Methods and compositions for selectively inhibiting pathogenic microbes” (priority 2019, dated 2021).
≈ marks a conversion by molar mass, not a printed value. Like-named read-outs stand apart in the source and are kept apart here.

Assays:
[1] = tested on: Trichophyton rubrum; experiment: MIC against Trichophyton rubrum; assay type: cell-based; conditions: Trichophyton rubrum Castellani Sabouraud ATCC: 28188; read-out: MIC
[2] = tested on: Bacillus thuringiensis; assay type: cell-based; conditions: Bacillus thuringiensis Berliner ATCC: 10792; for MIC: Bacillus thuringiensis, read-out: MIC
[3] = tested on: Candida glabrata; experiment: Candida glabrata MIC / MFC; assay type: cell-based; conditions: Nakaseomyces glabratus
[4] = tested on: C. albicans; experiment: Candida albicans MIC / MFC; assay type: cell-based
[5] = tested on: Burkholderia thailandensis Brett et al ATCC: 700388; experiment: microbe, parasite or virus in culture; assay type: cell-based
[6] = tested on: Francisella tularensis subsp. Holarctica Strain LVSR NR-597; experiment: microbe, parasite or virus in culture; assay type: cell-based
[7] = tested on: Bacillus subtilis; experiment: Bacillus subtilis MIC / MBC; assay type: cell-based; conditions: for MBC: Bacillus subtilis NRRL: B-571, minimum bactericidal concentration; for MIC: Bacillus subtilis, Bacillus subtilis (Ehrenberg 1835) Cohn 1872 NRRL: B-571, read-out: MIC
[8] = tested on: NoSpin HepaRG cells; experiment: HepaRG cytotoxicity, MTT assay EC50; assay type: cell-based, human; conditions: Homo sapiens, HepaRG; cytotoxicity EC50, Table 9
Protocol: Additionally, the antimicrobial compounds were analyzed for cytotoxicity. […] We utilized the standard MTT assay (Promega CellTiter 96) and GraphPad Prism 7 software to determine EC50 values for each analogue. Briefly, 20,000 HepG2 cells in 200 μl of the ATCC recommended media were seeded in each well of a 96-well plate with a moisture barrier created in the outermost wells. The cells were allowed to attach overnight at 37° C., and then observed under phase contrast microscopy for proper morphological characteristics. […] Once incubations were complete, the spectrophotometric absorbance of the samples was measured at a wavelength of 595 nm. […] For the HepaRG assay, NoSpin HepaRG™ cells (Lonza, cat #NSHPRG) were thawed and plated with 20,000 cells per well. They were allowed to attach for 4 h (optimal DME profile per Lonza's testing) before dosing following the identical protocol as above.

[9] = Candida glabrata #584 (Table 2), read-out: MIC
[10] = C. glabrata strain #325, read-out: MIC
[11] = C. glabrata strain #584 (Table 7), read-out: MIC
[12] = C. albicans strain #761, read-out: MIC
[13] = C. albicans strain #762, read-out: MIC

Row | Structure (SMILES) | MBC [2] [µg/mL] | MIC [3, 9] [µg/mL] | MIC [5] [µg/mL] | MIC [6] [µg/mL] | MIC [7] [µg/mL] | EC50 [8] [µg/mL] | MBC [5] [µg/mL] | also measured
1 | Fc1ccc2c(Sc3ccc(Br)cc3)c[nH]c2c1 [Compound 172A, 3-((4-bromophenyl)thio)-6-fluoro-1H-indole] | 1.56 (≈ 4.84 µM) | 1.56 (≈ 4.84 µM) | > 50 | 0.78 (≈ 2.42 µM) | 1.56 (≈ 4.84 µM) | – | – | MIC [1]: 9.52 µg/mL (≈ 29.5 µM); MIC [2]: 1.56 µg/mL (≈ 4.84 µM); MFC ([3]; C. glabrata strain #325): 12.5 µg/mL (≈ 38.8 µM); MIC ([3]; C. glabrata strain #325): 6.25 µg/mL (≈ 19.4 µM); MFC ([3]; Candida glabrata #584 (Table 2), minimum fungicidal concentration, read-out: MFC): 3.13 µg/mL (≈ 9.71 µM); MFC ([4]; C. albicans strain #761): 12.5 µg/mL (≈ 38.8 µM); MIC ([4]; C. albicans strain #761): 3.13 µg/mL (≈ 9.71 µM); MFC ([4]; C. albicans strain #762): 6.25 µg/mL (≈ 19.4 µM); MIC ([4]; C. albicans strain #762): 1.56 µg/mL (≈ 4.84 µM); MBC [7]: > 50 µg/mL
2 | Brc1ccc(Sc2c[nH]c3cc(Br)cc(Br)c23)cc1 [Compound 174AE, 4,6-dibromo-3-((4-bromophenyl)thio)-1H-indole] | > 50 | 25 (≈ 54.1 µM) | > 50 | 4 (≈ 8.66 µM) | 2 (≈ 4.33 µM) | – | – | MIC [2]: 2 µg/mL (≈ 4.33 µM); MFC ([3]; C. glabrata strain #325, read-out: MFC): > 50 µg/mL; MIC [3, 10]: 12.5 µg/mL (≈ 27.1 µM); MIC [3, 11]: 25 µg/mL (≈ 54.1 µM); MFC ([4]; C. albicans strain #761, read-out: MFC): > 50 µg/mL; MIC [4, 12]: 50 µg/mL (≈ 108 µM); MFC ([4]; C. albicans strain #762, read-out: MFC): 25 µg/mL (≈ 54.1 µM); MIC [4, 13]: 6.25 µg/mL (≈ 13.5 µM); MBC [7]: 4 µg/mL (≈ 8.66 µM)
3 | Brc1ccc2[nH]cc(Sc3c[nH]c4ccccc34)c2c1 [Compound 174AL, 3-((1H-indol-3-yl)thio)-5-bromo-1H-indole] | > 50 | – | > 50 | – | – | 26.1 (≈ 76 µM) | – | –
4 | Clc1ccc(Sc2c[nH]c3ccc(Br)cc23)cc1Cl [Compound 174W, 5-bromo-3-((3,4-dichlorophenyl)thio)-1H-indole] | 5 (≈ 13.4 µM) | 25 (≈ 67 µM) | > 50 | – | 1.25 (≈ 3.35 µM) | – | – | MIC [1]: 1.16 µg/mL (≈ 3.11 µM); MIC [2]: 1.25 µg/mL (≈ 3.35 µM); MIC [3, 10]: > 50 µg/mL; MIC [3, 11]: 25 µg/mL (≈ 67 µM); MIC [4, 12]: > 50 µg/mL; MIC [4, 13]: > 50 µg/mL; MBC [7]: > 10 µg/mL
5 | Oc1ccc(Sc2c[nH]c3ccc(C(F)(F)F)cc23)cc1 [Compound 177B, 4-((5-(trifluoromethyl)-1H-indol-3-yl)thio)phenol] | – | > 50 | 25 (≈ 80.8 µM) | 3.13 (≈ 10.1 µM) | 1.56 (≈ 5.04 µM) | 27.7 (≈ 89.6 µM) | > 50 | –
6 | Fc1ccccc1Sc1c[nH]c2ccc(C(F)(F)F)cc12 [Compound 177D, 3-((2-fluorophenyl)thio)-5-(trifluoromethyl)-1H-indole] | – | 25 (≈ 80.3 µM) | > 50 | 0.78 (≈ 2.51 µM) | 1.56 (≈ 5.01 µM) | 27.1 (≈ 87.1 µM) | > 50 | –
7 | Fc1ccc2[nH]cc(Sc3ccccc3Br)c2c1 [Compound 177E, 3-((2-bromophenyl)thio)-5-fluoro-1H-indole] | – | 25 (≈ 77.6 µM) | > 50 | 0.78 (≈ 2.42 µM) | 1.56 (≈ 4.84 µM) | 31.6 (≈ 98.1 µM) | > 50 | –
8 | FC(F)(F)c1ccc2[nH]cc(Sc3ccccc3C(F)(F)F)c2c1 [Compound 177F, 5-(trifluoromethyl)-3-((2-(trifluoromethyl)phenyl)thio)-1H-indole] | – | 50 (≈ 138 µM) | > 50 | 1.56 (≈ 4.32 µM) | 1.56 (≈ 4.32 µM) | 29.8 (≈ 82.5 µM) | > 50 | –
9 | CCc1ccccc1Sc1c[nH]c2ccc(C(F)(F)F)cc12 [Compound 177G, 3-((2-ethylphenyl)thio)-5-(trifluoromethyl)-1H-indole] | – | > 50 | > 50 | 0.78 (≈ 2.43 µM) | 1.56 (≈ 4.85 µM) | 29.5 (≈ 91.8 µM) | > 50 | –
10 | OCc1[nH]c2ccc(Br)cc2c1Sc1ccccc1Br [Compound 177H, (5-bromo-3-((2-bromophenyl)thio)-1H-indol-2-yl)methanol] | – | 50 (≈ 121 µM) | > 50 | 3.13 (≈ 7.58 µM) | 1.56 (≈ 3.78 µM) | 31.8 (≈ 77 µM) | > 50 | –
11 | CCc1ccccc1Sc1c(CO)[nH]c2ccc(C(F)(F)F)cc12 [Compound 177I, (3-((2-ethylphenyl)thio)-5-(trifluoromethyl)-1H-indol-2-yl)methanol] | – | > 50 | > 50 | 3.13 (≈ 8.91 µM) | 3.13 (≈ 8.91 µM) | 31.3 (≈ 89.1 µM) | > 50 | –
